Laboratory results published in article PMC5791972 (PLoS ONE, 2018).
Read-outs that look alike come from different tables or passages of the source.

Key:
CB1 (h) = target: T1, CB1 (h) (Homo sapiens, UniProt P21554); assay type: binding; details: 1.0E-06 M
T1 construct: host or cells: CHO cells

MAO-A = target: T2, MAO-A (Rattus norvegicus, UniProt P21396); assay type: binding; details: 1 h, 1.0E-06 M
T2 construct: tissue Cerep; host or cells: rat cerebral cortex
T2 sequence (P21396 1-526): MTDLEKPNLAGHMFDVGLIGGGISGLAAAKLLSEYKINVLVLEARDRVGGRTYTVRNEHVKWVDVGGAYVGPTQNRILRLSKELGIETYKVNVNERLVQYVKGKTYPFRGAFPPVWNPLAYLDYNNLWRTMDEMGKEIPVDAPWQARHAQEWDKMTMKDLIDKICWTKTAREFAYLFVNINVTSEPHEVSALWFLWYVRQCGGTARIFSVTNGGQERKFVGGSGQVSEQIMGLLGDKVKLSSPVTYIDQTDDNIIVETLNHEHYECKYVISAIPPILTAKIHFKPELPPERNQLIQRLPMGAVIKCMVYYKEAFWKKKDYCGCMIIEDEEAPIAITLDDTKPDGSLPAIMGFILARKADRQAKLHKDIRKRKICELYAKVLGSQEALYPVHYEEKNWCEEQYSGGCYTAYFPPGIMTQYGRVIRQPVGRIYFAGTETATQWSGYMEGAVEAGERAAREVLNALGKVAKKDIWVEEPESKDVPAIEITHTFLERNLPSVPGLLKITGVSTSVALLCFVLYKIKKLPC

5-HT3 (h) = target: T3, 5-HT3 (h) (Homo sapiens, UniProt P46098); assay: biochemical
T3 sequence (P46098 24-478): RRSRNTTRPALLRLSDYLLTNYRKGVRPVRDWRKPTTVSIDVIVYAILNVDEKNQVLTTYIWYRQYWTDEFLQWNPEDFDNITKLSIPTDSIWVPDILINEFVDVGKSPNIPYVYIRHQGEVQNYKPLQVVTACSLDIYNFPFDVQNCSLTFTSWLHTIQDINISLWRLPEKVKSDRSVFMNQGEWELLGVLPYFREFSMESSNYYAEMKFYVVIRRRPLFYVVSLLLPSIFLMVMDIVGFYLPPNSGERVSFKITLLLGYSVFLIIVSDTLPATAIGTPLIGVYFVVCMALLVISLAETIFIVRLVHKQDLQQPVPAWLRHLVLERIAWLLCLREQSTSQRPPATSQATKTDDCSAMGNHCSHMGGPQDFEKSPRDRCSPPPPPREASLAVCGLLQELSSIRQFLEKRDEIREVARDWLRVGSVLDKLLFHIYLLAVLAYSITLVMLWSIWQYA

hTRPV1 = target: T4, hTRPV1 (Homo sapiens, UniProt Q8NER1); assay: Ion channel selectivity patch clamp; assay type: cell-based
T4 construct: The cDNAs for various full-length ion channels were subcloned into pcDNA5/TO; expressed in transfected cells; host or cells: T-REx-293 (general cell paragraph)

5-HT transporter (h) = target: T5, 5-HT transporter (h) (Homo sapiens, UniProt P31645); assay type: binding; details: 1 h
T5 construct: host or cells: CHO cells
T5 sequence (P31645 whole entry): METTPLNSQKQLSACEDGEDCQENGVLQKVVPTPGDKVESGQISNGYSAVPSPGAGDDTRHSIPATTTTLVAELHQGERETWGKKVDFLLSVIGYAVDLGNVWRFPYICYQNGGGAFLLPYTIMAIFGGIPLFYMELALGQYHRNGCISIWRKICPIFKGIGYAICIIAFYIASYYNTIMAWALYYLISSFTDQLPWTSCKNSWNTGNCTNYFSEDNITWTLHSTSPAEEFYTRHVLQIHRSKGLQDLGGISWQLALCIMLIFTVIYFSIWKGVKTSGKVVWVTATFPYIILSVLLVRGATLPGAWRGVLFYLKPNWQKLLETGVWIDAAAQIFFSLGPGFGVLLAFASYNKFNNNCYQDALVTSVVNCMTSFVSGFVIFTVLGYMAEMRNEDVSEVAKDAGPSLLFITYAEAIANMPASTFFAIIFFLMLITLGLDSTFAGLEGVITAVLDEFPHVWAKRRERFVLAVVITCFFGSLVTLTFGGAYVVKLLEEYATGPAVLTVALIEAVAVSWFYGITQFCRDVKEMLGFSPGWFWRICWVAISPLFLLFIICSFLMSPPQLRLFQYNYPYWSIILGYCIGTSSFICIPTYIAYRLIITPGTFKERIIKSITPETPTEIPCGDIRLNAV

δ2 (DOP) (h) = target: T6, δ2 (DOP) (h) (Homo sapiens, UniProt P41143); assay type: binding; details: 1.0E-06 M
T6 construct: host or cells: CHO cells
T6 sequence (P41143 whole entry): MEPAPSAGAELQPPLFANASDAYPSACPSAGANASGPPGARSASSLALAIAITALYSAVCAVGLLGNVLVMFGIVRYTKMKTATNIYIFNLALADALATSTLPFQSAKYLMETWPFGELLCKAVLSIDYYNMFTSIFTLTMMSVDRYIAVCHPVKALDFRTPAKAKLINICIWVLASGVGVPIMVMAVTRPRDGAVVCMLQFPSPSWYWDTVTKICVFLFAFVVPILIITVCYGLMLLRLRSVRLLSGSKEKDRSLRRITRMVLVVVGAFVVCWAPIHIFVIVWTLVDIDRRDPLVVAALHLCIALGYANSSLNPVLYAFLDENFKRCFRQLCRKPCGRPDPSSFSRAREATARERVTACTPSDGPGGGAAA

hTRPA1 = target: T7, hTRPA1 (Homo sapiens, UniProt O75762); assay: Ion channel selectivity patch clamp; assay type: cell-based
T7 construct: The cDNAs for various full-length ion channels were subcloned into pcDNA5/TO; expressed in transfected cells; host or cells: T-REx-293 (general cell paragraph)
T7 sequence (O75762 whole entry): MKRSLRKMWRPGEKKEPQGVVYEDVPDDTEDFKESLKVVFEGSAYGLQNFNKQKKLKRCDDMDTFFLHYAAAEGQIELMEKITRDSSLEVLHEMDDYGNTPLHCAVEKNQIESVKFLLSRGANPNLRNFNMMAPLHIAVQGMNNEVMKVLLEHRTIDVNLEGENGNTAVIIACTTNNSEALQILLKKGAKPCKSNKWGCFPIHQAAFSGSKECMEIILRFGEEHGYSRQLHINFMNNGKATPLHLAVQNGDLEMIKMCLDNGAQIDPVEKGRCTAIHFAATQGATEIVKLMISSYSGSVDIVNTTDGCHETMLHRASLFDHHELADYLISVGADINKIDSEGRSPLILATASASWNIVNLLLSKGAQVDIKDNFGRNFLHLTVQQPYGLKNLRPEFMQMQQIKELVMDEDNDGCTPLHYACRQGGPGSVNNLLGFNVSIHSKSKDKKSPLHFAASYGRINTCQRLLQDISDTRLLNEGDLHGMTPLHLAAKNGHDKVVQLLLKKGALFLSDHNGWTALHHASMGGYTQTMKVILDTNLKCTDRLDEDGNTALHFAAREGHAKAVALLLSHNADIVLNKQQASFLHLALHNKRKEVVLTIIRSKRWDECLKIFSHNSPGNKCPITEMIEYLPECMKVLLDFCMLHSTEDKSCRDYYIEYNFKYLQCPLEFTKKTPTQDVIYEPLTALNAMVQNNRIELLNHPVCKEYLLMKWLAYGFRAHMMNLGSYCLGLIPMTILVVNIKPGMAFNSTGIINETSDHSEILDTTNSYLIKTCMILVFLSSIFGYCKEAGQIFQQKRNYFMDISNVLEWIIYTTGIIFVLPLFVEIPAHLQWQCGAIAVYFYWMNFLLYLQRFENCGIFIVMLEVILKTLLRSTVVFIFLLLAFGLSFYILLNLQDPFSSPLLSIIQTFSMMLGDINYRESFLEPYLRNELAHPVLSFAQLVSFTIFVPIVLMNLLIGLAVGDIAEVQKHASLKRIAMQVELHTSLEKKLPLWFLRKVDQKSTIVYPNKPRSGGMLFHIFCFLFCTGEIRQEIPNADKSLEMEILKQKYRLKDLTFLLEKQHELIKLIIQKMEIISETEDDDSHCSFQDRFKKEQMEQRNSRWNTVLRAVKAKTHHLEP

hTRPV3 = target: T8, hTRPV3 (Homo sapiens, UniProt Q8NET8); assay: Ion channel selectivity patch clamp; assay type: cell-based
T8 construct: The cDNAs for various full-length ion channels were subcloned into pcDNA5/TO; expressed in transfected cells; host or cells: T-REx-293 (general cell paragraph)
T8 sequence (Q8NET8 whole entry): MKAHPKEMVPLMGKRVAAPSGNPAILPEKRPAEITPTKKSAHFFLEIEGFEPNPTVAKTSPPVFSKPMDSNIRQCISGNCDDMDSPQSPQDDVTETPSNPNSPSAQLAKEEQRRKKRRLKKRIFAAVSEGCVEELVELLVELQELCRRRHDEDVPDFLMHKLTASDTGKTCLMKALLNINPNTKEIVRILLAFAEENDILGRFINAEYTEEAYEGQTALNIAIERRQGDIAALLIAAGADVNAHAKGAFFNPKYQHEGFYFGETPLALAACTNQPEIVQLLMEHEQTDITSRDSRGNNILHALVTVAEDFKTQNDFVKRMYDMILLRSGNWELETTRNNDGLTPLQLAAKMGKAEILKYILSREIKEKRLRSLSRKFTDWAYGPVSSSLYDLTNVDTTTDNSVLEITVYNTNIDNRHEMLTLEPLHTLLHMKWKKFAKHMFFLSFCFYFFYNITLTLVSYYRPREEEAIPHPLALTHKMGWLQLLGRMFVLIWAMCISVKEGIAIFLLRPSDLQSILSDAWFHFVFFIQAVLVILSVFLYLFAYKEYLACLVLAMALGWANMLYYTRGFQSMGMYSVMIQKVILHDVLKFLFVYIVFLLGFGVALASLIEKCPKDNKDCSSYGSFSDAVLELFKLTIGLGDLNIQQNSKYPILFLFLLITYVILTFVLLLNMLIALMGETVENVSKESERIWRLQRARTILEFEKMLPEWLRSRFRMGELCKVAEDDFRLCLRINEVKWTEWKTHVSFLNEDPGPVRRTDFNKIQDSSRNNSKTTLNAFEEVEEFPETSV

5-HT2A (h) = target: T9, 5-HT2A (h) (Homo sapiens, UniProt P28223); assay type: binding; details: 1.0E-06 M
T9 construct: host or cells: HEK-293 cells
T9 sequence (P28223 whole entry): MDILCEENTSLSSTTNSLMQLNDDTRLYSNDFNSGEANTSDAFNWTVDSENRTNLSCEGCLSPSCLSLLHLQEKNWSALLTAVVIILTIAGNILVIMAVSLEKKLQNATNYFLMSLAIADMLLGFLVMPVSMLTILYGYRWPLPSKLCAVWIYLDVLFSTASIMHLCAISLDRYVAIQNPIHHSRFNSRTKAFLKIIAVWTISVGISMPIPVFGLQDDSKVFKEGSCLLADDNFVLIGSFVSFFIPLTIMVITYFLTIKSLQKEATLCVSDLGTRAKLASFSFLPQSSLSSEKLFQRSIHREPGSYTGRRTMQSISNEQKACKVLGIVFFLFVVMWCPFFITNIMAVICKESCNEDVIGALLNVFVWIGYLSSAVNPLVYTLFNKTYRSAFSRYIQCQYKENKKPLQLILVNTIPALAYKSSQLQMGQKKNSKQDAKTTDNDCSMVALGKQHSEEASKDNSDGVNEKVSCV

D1 (h) = target: T10, D1 (h) (Homo sapiens, UniProt P21728); assay type: binding
T10 construct: host or cells: CHO cells
T10 sequence (P21728 whole entry): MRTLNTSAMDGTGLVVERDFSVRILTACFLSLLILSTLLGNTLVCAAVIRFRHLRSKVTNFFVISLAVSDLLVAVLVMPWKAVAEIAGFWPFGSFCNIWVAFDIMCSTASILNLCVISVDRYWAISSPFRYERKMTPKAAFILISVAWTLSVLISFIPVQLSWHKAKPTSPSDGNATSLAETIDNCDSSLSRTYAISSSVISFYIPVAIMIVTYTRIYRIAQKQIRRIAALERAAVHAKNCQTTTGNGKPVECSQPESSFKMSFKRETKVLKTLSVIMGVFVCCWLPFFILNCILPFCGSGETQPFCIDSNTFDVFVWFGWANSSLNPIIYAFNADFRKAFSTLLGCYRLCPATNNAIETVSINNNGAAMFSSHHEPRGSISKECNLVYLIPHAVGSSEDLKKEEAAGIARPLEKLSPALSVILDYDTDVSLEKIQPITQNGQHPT

D3 (h) = target: T11, D3 (h) (Homo sapiens, UniProt P35462); assay type: binding
T11 construct: host or cells: CHO cells
T11 sequence (P35462 whole entry): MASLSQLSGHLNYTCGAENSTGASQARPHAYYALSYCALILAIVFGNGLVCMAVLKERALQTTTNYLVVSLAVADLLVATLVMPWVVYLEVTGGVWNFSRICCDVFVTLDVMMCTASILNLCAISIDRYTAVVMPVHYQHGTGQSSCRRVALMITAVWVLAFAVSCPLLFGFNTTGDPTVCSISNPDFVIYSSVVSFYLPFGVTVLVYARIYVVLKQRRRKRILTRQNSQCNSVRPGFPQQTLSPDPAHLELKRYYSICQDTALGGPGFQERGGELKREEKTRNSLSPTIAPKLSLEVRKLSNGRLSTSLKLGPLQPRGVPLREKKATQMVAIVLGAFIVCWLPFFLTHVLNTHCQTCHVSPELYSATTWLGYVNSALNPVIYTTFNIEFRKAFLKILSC

M5 (h) = target: T12, M5 (h) (Homo sapiens, UniProt P08912); assay type: binding
T12 construct: host or cells: CHO cells
T12 sequence (P08912 1-532): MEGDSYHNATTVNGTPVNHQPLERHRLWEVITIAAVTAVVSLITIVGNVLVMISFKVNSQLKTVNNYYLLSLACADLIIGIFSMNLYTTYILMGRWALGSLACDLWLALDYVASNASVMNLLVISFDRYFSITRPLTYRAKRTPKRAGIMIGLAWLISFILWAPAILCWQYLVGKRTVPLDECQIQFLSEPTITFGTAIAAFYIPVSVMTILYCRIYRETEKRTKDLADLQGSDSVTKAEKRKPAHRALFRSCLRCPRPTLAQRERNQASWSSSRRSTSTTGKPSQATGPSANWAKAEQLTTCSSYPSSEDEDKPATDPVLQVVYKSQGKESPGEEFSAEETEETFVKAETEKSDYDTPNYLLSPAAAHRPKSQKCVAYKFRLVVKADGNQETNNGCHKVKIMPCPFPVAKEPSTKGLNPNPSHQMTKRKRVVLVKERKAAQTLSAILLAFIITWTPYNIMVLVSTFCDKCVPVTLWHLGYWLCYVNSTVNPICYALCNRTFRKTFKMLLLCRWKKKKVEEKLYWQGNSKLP

MT3 (ML2) = target: T13, MT3 (ML2) (Mesocricetus auratus, UniProt A0ABM2YAB8); assay type: binding, hamster
T13 construct: tissue Cerep; host or cells: hamster brain
T13 sequence (A0ABM2YAB8 1-231): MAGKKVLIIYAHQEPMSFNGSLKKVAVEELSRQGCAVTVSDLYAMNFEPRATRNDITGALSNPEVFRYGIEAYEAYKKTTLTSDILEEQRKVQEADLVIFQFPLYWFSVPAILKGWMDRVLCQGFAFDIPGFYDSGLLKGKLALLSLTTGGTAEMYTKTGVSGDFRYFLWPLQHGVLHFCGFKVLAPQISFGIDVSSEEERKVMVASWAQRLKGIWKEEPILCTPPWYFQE

T1 sequence (P21554 whole entry): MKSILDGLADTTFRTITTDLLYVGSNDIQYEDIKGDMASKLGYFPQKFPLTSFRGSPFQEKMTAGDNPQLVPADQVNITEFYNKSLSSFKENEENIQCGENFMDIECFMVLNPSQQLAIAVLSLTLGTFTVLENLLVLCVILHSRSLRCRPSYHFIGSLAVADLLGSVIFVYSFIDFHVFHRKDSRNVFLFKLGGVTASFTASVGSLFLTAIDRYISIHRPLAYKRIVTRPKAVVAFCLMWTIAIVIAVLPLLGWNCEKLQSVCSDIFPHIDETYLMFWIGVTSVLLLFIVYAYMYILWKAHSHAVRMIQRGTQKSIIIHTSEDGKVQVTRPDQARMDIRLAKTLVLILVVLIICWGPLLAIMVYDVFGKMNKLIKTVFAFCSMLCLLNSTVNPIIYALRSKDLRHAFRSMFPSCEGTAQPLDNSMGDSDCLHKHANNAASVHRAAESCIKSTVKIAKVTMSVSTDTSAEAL

Cn1c(=O)n(CCCO)c(=O)c2c1nc(Oc1cccc(Cl)c1)n2Cc1ccc(Cl)cc1 [HC-070]
inhibition at 1 µM (CB1 (h); read-out: % Inhibition 1st): 8.4% | inhibition at 1 µM (CB1 (h); read-out: % Inhibition 2nd): 18.8% | inhibition at 1 µM (CB1 (h); read-out: % Inhibition Mean): 13.6% | inhibition at 1 µM (MAO-A; read-out: % Inhibition 1st): 12.6% | inhibition at 1 µM (MAO-A; read-out: % Inhibition 2nd): 13.1% | inhibition at 1 µM (MAO-A; read-out: % Inhibition Mean): 12.8% | inhibition at 1 µM (5-HT3 (h); read-out: % Inhibition 1st): 4.7% | inhibition at 1 µM (5-HT3 (h); read-out: % Inhibition 2nd): 2.6% | inhibition at 1 µM (5-HT3 (h); read-out: % Inhibition Mean): 3.7% | IC50 (hTRPV1; 500 nM Capsaicin, read-out: IC50): > 1900 nM | inhibition at 1 µM (5-HT transporter (h); read-out: % Inhibition 1st): -0.3% | inhibition at 1 µM (5-HT transporter (h); read-out: % Inhibition 2nd): 18.4% | inhibition at 1 µM (5-HT transporter (h); read-out: % Inhibition Mean): 9.1% | inhibition at 1 µM (δ2 (DOP) (h); read-out: % Inhibition 1st): 6.8% | inhibition at 1 µM (δ2 (DOP) (h); read-out: % Inhibition 2nd): 5.9% | inhibition at 1 µM (δ2 (DOP) (h); read-out: % Inhibition Mean): 6.3% | IC50 (hTRPA1; 2-10 µM AITC, read-out: IC50): > 1900 nM | IC50 (hTRPV3; 30 µM 2-APB, read-out: IC50): > 1900 nM | inhibition at 1 µM (5-HT2A (h); read-out: % Inhibition 1st): -1.3% | inhibition at 1 µM (5-HT2A (h); read-out: % Inhibition 2nd): 6.1% | inhibition at 1 µM (5-HT2A (h); read-out: % Inhibition Mean): 2.4% | inhibition at 1 µM (D1 (h); read-out: % Inhibition 1st): 3% | inhibition at 1 µM (D1 (h); read-out: % Inhibition 2nd): -4.8% | inhibition at 1 µM (D1 (h); read-out: % Inhibition Mean): -0.9% | inhibition at 1 µM (D3 (h); read-out: % Inhibition 1st): 3.6% | inhibition at 1 µM (D3 (h); read-out: % Inhibition 2nd): 6.4% | inhibition at 1 µM (D3 (h); read-out: % Inhibition Mean): 5% | inhibition at 1 µM (M5 (h); read-out: % Inhibition 1st): -7.3% | inhibition at 1 µM (M5 (h); read-out: % Inhibition 2nd): 10.1% | inhibition at 1 µM (M5 (h); read-out: % Inhibition Mean): 1.4% | inhibition at 1 µM (MT3 (ML2); read-out: % Inhibition 1st): 46.1% | inhibition at 1 µM (MT3 (ML2); read-out: % Inhibition 2nd): 49.5% | inhibition at 1 µM (MT3 (ML2); read-out: % Inhibition Mean): 47.8%

Cn1c(=O)n(CCCO)c(=O)c2c1nc(Oc1cccc(OC(F)(F)F)c1)n2Cc1ccc(Cl)cc1 [HC-608]
inhibition at 1 µM (CB1 (h); read-out: % Inhibition 1st): 27% | inhibition at 1 µM (CB1 (h); read-out: % Inhibition 2nd): 25.5% | inhibition at 1 µM (CB1 (h); read-out: % Inhibition Mean): 26.2% | inhibition at 1 µM (MAO-A; read-out: % Inhibition 1st): -3.8% | inhibition at 1 µM (MAO-A; read-out: % Inhibition 2nd): 3.6% | inhibition at 1 µM (MAO-A; read-out: % Inhibition Mean): -0.1% | inhibition at 1 µM (5-HT3 (h); read-out: % Inhibition 1st): -4.1% | inhibition at 1 µM (5-HT3 (h); read-out: % Inhibition 2nd): 9.5% | inhibition at 1 µM (5-HT3 (h); read-out: % Inhibition Mean): 2.7% | IC50 (hTRPV1): > 1640 nM | inhibition at 1 µM (5-HT transporter (h); read-out: % Inhibition 1st): -6.2% | inhibition at 1 µM (5-HT transporter (h); read-out: % Inhibition 2nd): 4.6% | inhibition at 1 µM (5-HT transporter (h); read-out: % Inhibition Mean): -0.8% | inhibition at 1 µM (δ2 (DOP) (h); read-out: % Inhibition 1st): -10.8% | inhibition at 1 µM (δ2 (DOP) (h); read-out: % Inhibition 2nd): 3.1% | inhibition at 1 µM (δ2 (DOP) (h); read-out: % Inhibition Mean): -3.9% | IC50 (hTRPA1): > 1640 nM | IC50 (hTRPV3): > 1640 nM | inhibition at 1 µM (5-HT2A (h); read-out: % Inhibition 1st): 1.8% | inhibition at 1 µM (5-HT2A (h); read-out: % Inhibition 2nd): -14.3% | inhibition at 1 µM (5-HT2A (h); read-out: % Inhibition Mean): -6.2% | inhibition at 1 µM (D1 (h); read-out: % Inhibition 1st): 1.1% | inhibition at 1 µM (D1 (h); read-out: % Inhibition 2nd): 5% | inhibition at 1 µM (D1 (h); read-out: % Inhibition Mean): 3.1% | inhibition at 1 µM (D3 (h); read-out: % Inhibition 1st): 4% | inhibition at 1 µM (D3 (h); read-out: % Inhibition 2nd): 9.7% | inhibition at 1 µM (D3 (h); read-out: % Inhibition Mean): 6.9% | inhibition at 1 µM (M5 (h); read-out: % Inhibition 1st): -15.6% | inhibition at 1 µM (M5 (h); read-out: % Inhibition 2nd): -12.8% | inhibition at 1 µM (M5 (h); read-out: % Inhibition Mean): -14.2% | inhibition at 1 µM (MT3 (ML2); read-out: % Inhibition 1st): -0.7% | inhibition at 1 µM (MT3 (ML2); read-out: % Inhibition 2nd): 1.2% | inhibition at 1 µM (MT3 (ML2); read-out: % Inhibition Mean): 0.2%
